Data on one compound can be found in patent US20060205682A1, “Antibiotic and combinations of antibiotic and symptomatic relief agent formulations” (priority 2005, published 2006).

Converted amounts (≈) assume the structure as drawn.

A short description of this data set: physchem. The settings on record: pH 8, aqueous buffer, thermodynamic from solid. How it is done:
A 5 ml aliquot of 5% potassium phosphate buffer is added to 500 mg of gamma-cyclodextrin and sonicated until a clear solution is formed. […] The process is repeated with two additional amounts of gamma-cyclodextrin. Known aliquots of each solution are placed in a 2 cm cell and analyzed using a UV-Vis Spectrophotomer between the wavelengths 200-400 nm.

For `COc1cc(Cc2cnc(N)nc2N)cc(OC)c1OC` [trimethoprim], the solubility (thermodynamic) (as a rule, solubility found after equilibrating the solid with the medium) at 30 min is 0.35 mg/mL (≈ 1210 µM).
